How the values were obtained:
Format in all cases: biochemical
CYP3A4 [1] = target: T1, CYP3A4 (Homo sapiens, UniProt P08684); test: IC50 vs CYP3A by inhibition of lopinavir metabolism in human liver microsomes; set-up: 0.01 mg/mL protein human liver microsomes (BD Gentest); tissue BD Gentest; host or cells: human liver microsomes; conditions: 1.5 μM lopinavir, 0.01 mg/mL human liver microsomes, 8 min at 37° C.; read-out: CYP IC50 (nM) 3A4 (LPV)
Experimental: Determination of IC50 vs CYP3A by Measurement of Inhibition of Lopinavir Metabolism
This assay was performed in a standard 96-well plate design. IC50 values were calculated from the percent inhibition observed for each test compound at 6 concentrations (for example, 0.098, 0.391, 1.56, 6.25, 25 and 100 nM). The incubation substrate mix contains 1.5 μM lopinavir, 0.01 mg/mL protein human liver microsomes (BD Gentest), 1 mM NAPDH, 3.3 mM MgCl2 and 100 mM potassium phosphate buffer (pH 7.4). The production of the sum of three hydroxylated metabolites (M2: 6-hydroxy lopinavir, M3: 4-hydroxy lopinavir, M4: 4-hydroxy lopinavir (epimer of M3), Kumar et al., 1999) was determined after incubation for 8 min at 37° C. Quantitation of the metabolite peak area ratio against an internal standard (tolbutamide) was determined by LC/MS/MS analysis following acetonitrile treatment of the incubations.
(§1) Samples were analyzed in the MRM mode with a SCIEX API-4000 mass spectrometer (Applied Biosystems, Foster City, Calif.), with a Shimadzu LC-20 AD pump (Shimadzu corporation, Kyoto, JP) and a CTC PAL autosampler (Agilent Technologies, Switzerland). A Phenomenex, Luna, 5 μm, 100 A, 2.00×30 mm HPLC column was used for the separation. The mobile phases were: (A) 0.1% formic acid in water and (B) 0.1% formic acid in acetonitrile. The binary gradient was as follows.
The peak area ratio of the analyte to the internal standard was used to quantify the metabolite. The values of peak area ratios in the presence of test compound were compared to those of maximum or minimum controls and were expressed as % inhibition by interpolating between the maximum and minimum peak area ratios. Incubations with no inhibitor were defined as the maxima and with 5 μM ketoconazole were defined as the minima.
The following equation was used to calculate the % inhibition: [1−[(X−Low control)/(High control−Low control)]]*100
For the IC50 calculation, SigmaPlot was used to plot the mean % inhibition versus the test compound concentrations and for non-linear regression analysis of the data. Depending on the range of data points defining the inhibition curve, the data may have been fit to the 4-parameter logistic equation.
Target sequence in this assay (P08684 2-503): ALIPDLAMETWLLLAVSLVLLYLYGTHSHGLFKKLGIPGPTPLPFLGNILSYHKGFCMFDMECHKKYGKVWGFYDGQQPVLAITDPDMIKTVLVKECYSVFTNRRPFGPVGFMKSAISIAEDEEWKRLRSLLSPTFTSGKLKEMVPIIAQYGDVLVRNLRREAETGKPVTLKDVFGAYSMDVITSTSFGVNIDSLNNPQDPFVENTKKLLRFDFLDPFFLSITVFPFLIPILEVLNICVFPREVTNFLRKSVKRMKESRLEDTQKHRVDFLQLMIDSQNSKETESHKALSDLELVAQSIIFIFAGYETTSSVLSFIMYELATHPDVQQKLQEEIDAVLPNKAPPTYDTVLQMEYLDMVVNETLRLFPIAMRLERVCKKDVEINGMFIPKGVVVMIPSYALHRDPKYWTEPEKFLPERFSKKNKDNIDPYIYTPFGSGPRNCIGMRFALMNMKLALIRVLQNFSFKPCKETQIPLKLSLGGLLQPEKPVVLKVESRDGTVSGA

CYP3A4 [2] = target: T1, CYP3A4; test: Cocktail assay for CYPs, midazolam 1′-hydroxylation (CYP3A4), human liver microsomes; set-up: 0.1 mg/mL protein human liver microsomes (BD Gentest); tissue BD Gentest; host or cells: human liver microsomes; conditions: 2 μM midazolam, 0.1 mg/mL human liver microsomes, 10 min at 37° C.; read-out: CYP IC50 (nM) 3A4 (MDZ)
Experimental: (§2) Determination of IC50 in a Cocktail Assay for CYPs 1A2, 2C9, 2C19, 2D6 and 3A4:
(§3) This assay was performed in a standard 96-well plate design. IC50 values were calculated from the percent inhibition observed for each test compound at 6 concentrations (for example, 0.0032, 0.016, 0.08, 0.4, 2 and 10 μM). The incubation substrate mix contains 10 μM phenacetin (1A2), 5 μM diclofenac (2C9), 30 μM mephenytoin (2C19), 5 μM dextromethorphan (2D6) and 2 μM midazolam (3A4), 0.1 mg/mL protein human liver microsomes (BD Gentest), 1 mM NAPDH, 3.3 mM MgCl2 and 100 mM potassium phosphate buffer (pH 7.4). The production of the metabolite of each probe substrate was determined after incubation for 10 min at 37° C. Quantitation of the metabolite peak area ratio against an internal standard (tolbutamide) was determined by LC/MS/MS analysis following acetonitrile treatment of the incubations.
as §1, with “[…],” for “μm,”
(§4) The peak area ratio of the analyte to the internal standard was used to quantify the metabolite. The values of peak area ratios in the presence of test compound were compared to those of maximum or minimum controls and were expressed as % inhibition by interpolating between the maximum and minimum peak area ratios. Incubations with no inhibitor were defined as the maxima. The following equation was used to calculate the % inhibition: [1−[(X−Low control)/(High control−Low control)]]*100 For the IC50 calculation, SigmaPlot was used to plot the mean % inhibition versus the test compound concentrations and for non-linear regression analysis of the data. Depending on the range of data points defining the inhibition curve, the data may have been fit to the 4-parameter logistic equation.
Target sequence in this assay (P08684 whole entry): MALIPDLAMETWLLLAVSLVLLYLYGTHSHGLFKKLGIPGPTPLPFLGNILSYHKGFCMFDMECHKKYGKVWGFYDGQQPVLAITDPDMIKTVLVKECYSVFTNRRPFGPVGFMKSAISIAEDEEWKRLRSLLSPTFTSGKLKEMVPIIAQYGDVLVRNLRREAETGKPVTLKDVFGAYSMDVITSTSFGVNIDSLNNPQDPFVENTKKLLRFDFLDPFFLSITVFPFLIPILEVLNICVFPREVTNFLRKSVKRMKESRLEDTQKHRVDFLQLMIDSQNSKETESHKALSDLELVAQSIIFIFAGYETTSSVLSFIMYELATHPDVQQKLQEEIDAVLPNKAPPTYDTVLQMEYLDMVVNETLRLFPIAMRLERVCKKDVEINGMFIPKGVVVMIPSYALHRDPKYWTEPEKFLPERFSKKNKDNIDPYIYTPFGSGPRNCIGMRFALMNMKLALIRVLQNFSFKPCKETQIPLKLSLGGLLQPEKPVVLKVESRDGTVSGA

CYP1A2 = target: T2, CYP1A2 (Homo sapiens, UniProt P05177); test: Cocktail assay for CYPs, phenacetin O-deethylation (CYP1A2), human liver microsomes; conditions: 10 μM phenacetin, 0.1 mg/mL human liver microsomes, 10 min at 37° C.; read-out: CYP IC50 (nM) 1A2
T2 construct: 0.1 mg/mL protein human liver microsomes (BD Gentest); tissue BD Gentest; host or cells: human liver microsomes
T2 sequence (P05177 1-516): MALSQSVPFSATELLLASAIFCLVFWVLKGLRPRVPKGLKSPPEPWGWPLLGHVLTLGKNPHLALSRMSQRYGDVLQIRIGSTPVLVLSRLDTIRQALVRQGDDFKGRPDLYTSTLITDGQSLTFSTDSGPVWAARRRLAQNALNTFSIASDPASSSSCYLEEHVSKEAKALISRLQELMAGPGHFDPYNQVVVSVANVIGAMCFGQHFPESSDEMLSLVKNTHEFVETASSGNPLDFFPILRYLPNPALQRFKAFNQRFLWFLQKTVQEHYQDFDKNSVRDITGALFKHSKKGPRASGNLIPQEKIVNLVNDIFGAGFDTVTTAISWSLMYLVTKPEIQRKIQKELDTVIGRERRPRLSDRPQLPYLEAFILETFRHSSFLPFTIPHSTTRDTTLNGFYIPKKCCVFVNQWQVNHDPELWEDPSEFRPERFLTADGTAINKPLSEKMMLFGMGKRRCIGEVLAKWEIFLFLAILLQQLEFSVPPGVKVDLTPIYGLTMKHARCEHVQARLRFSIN
Experimental: as §2, §3
as §1, with “[…],” for “μm,”
as §4

CYP2C19 = target: T3, CYP2C19 (Homo sapiens, UniProt P33261); test: Cocktail assay for CYPs, mephenytoin 4′-hydroxylation (CYP2C19), human liver microsomes; conditions: 30 μM mephenytoin, 0.1 mg/mL human liver microsomes, 10 min at 37° C.; read-out: CYP IC50 (nM) 2C19
T3 construct: 0.1 mg/mL protein human liver microsomes (BD Gentest); tissue BD Gentest; host or cells: human liver microsomes
Experimental: as §2
as §3, with “IC50 values were calculated from the percent inhibition observed for each test compound at 6 concentrations (for example, 0.0032, 0.016, 0.08, 0.4, 2 and 10 μM).” left out
as §1, with “[…],” for “μm,”
as §4

CYP2D6 = target: T4, CYP2D6 (Homo sapiens, UniProt P10635); test: Cocktail assay for CYPs, dextromethorphan O-demethylation (CYP2D6), human liver microsomes; conditions: 5 μM dextromethorphan, 0.1 mg/mL human liver microsomes, 10 min at 37° C.; read-out: CYP IC50 (nM) 2D6
T4 construct: 0.1 mg/mL protein human liver microsomes (BD Gentest); tissue BD Gentest; host or cells: human liver microsomes
Experimental: as §2, §3
as §1, with “[…],” for “μm,”
as §4

CYP2C9 = target: T5, CYP2C9 (Homo sapiens, UniProt P11712); test: Cocktail assay for CYPs, diclofenac 4′-hydroxylation (CYP2C9), human liver microsomes; conditions: 5 μM diclofenac, 0.1 mg/mL human liver microsomes, 10 min at 37° C.; read-out: CYP IC50 (nM) 2C9
T5 construct: 0.1 mg/mL protein human liver microsomes (BD Gentest); tissue BD Gentest; host or cells: human liver microsomes
Experimental: as §2
as §3, with “IC50 values were calculated from the percent inhibition observed for each test compound at 6 concentrations (for example, 0.0032, 0.016, 0.08, 0.4, 2 and 10 μM).” left out
as §1, with “[…],” for “μm,”
as §4

T4 sequence (P10635 whole entry): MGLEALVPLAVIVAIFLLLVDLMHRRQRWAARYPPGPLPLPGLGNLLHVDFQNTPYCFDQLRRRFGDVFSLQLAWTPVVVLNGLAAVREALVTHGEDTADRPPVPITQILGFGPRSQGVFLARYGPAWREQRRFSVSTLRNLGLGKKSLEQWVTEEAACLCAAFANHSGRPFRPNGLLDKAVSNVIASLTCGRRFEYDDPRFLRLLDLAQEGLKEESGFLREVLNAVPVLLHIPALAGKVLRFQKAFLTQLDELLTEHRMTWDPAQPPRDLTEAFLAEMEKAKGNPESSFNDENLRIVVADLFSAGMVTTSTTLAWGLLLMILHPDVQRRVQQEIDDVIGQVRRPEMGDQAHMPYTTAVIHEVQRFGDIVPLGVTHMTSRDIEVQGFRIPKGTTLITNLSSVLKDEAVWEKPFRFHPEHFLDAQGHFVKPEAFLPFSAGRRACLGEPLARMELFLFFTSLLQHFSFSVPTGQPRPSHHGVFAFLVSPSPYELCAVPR
T3 sequence (P33261 whole entry): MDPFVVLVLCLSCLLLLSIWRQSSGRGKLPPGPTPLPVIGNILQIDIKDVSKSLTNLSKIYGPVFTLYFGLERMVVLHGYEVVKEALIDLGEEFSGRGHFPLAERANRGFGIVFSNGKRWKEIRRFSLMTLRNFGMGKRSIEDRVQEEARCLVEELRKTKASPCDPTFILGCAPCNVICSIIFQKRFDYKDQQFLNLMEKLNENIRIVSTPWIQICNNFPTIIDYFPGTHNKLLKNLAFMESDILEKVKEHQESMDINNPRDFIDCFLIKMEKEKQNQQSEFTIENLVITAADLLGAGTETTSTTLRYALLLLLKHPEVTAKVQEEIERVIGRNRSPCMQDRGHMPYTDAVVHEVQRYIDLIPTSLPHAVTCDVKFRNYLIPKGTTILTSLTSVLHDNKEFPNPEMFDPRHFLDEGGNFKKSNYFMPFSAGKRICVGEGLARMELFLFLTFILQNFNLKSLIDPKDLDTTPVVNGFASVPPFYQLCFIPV
T5 sequence (P11712 whole entry): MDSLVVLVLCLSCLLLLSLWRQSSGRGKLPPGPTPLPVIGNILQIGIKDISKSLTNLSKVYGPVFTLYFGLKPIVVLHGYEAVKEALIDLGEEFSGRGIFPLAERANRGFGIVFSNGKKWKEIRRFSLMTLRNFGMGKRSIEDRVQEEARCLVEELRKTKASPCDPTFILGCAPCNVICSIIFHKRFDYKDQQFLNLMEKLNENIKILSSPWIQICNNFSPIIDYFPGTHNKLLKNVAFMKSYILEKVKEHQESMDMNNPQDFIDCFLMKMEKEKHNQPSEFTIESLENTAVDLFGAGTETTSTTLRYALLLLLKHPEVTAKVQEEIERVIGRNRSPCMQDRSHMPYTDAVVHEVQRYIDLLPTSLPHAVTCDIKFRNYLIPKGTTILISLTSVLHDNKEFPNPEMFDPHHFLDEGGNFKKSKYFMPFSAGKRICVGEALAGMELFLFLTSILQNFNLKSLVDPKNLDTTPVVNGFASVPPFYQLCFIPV

Compound | IC50 (CYP3A4 [1]) | IC50 (CYP3A4 [2]) | IC50 (CYP1A2) | IC50 (CYP2C19) | IC50 (CYP2D6) | IC50 (CYP2C9)
CC(C)(C)OC(=O)N1CCCC1c1ccccc1-c1cncn1C1CC1 (stereo not shown) [Compound 37, tert-butyl 2-(2-(1-cyclopropyl-1H-imidazol-5-yl)phenyl) pyrrolidine-1-carboxylate] | 35.2 nM | 17.8 nM | > 10000 nM | 5810 nM | > 10000 nM | > 10000 nM
CC(c1ccccc1-c1cncn1CCc1ccc(F)cc1)N(C)S(=O)(=O)c1cnc(N2CCN(C)CC2)s1 (stereo not shown) [Compound 4, N-(1-(2-(1-(4-fluorophenethyl)-1H-imidazol-5-yl)phenyl)ethyl)-N-methyl-2-(4-methylpiperazin-1-yl)thiazole-5-sulfonamide] | 9 nM | 12 nM | > 10000 nM | 6700 nM | 5110 nM | 2200 nM
O=C(C1CC1)N1CCCC1c1ccccc1-c1cncn1CCc1ccc(F)cc1 (single isomer, unassigned) [Compound 44a, (R or S)-cyclopropyl(2-(2-(1-(4-fluorophenethyl)-1H-imidazol-5-yl)phenyl)pyrrolidin-1-yl)methanone] | 20.1 nM | 46.6 nM | > 10000 nM | 6520 nM | > 10000 nM | > 10000 nM
CS(=O)(=O)N1CCCC1c1ccccc1-c1cncn1CCc1ccc(F)cc1 (single isomer, unassigned) [Compound 23b, (R or S)-1-(4-fluorophenethyl)-5-(2-(1-(methylsulfonyl)pyrrolidin-2-yl)phenyl)-1H-imidazole] | 17.2 nM | 17 nM | > 10000 nM | > 10000 nM | > 10000 nM | > 10000 nM
COc1ccc(OC)c(S(=O)(=O)N2CCCC2c2ccccc2-c2cncn2CCc2ccc(F)cc2)c1 (stereo not shown) [Compound 27, 5-(2-(1-((2,5-dimethoxyphenyl)sulfonyl)pyrrolidin-2-yl)phenyl)-1-(4-fluorophenethyl)-1H-imidazole] | 41 nM | 36.1 nM | 2650 nM | 3800 nM | 3480 nM | 1910 nM
CN1CCCC1c1ccccc1-c1cncn1CCc1ccc(F)cc1 (single isomer, unassigned) [Compound 45b, (R or S)-1-(4-fluorophenethyl)-5-(2-(1-methylpyrrolidin-2-yl)phenyl)-1H-imidazole] |  | 22.8 nM | > 10000 nM | > 10000 nM | 2480 nM | > 10000 nM
CN1CCCC1c1ccccc1-c1cncn1CCc1ccc(F)cc1 (single isomer, unassigned) [Compound 45a, (R or S)-1-(4-fluorophenethyl)-5-(2-(1-methylpyrrolidin-2-yl)phenyl)-1H-imidazole] |  | 14.3 nM | > 10000 nM | 7790 nM | 4220 nM | > 10000 nM

Other lines, results leading:

IC50 (CYP3A4 [1]) | IC50 (CYP3A4 [2]) | IC50 (CYP1A2) | IC50 (CYP2C19) | IC50 (CYP2D6) | IC50 (CYP2C9) | Compound
1.4 nM | 5.3 nM | 7020 nM | > 10000 nM | 3940 nM | 6300 nM | O=S(=O)(c1cnc(N2CCN3C[C@H](O)C[C@H]3C2)s1)N1CCCC1c1ccccc1-c1cncn1CCc1ccc(F)cc1 (single isomer, unassigned) [Compound 22a, (7R,8aS)-2-(5-(((R or S)-2-(2-(1-(4-fluoro-phenethyl)-1H-imidazol-5-yl)phenyl)pyrrolidin-1-yl)sulfonyl)thiazol-2-yl) octahydro-pyrrolo[1,2-a] pyrazin-7-ol]
0.92 nM | 5.1 nM | 158 nM | 56 nM | 163 nM | 63.8 nM | O=C(NCc1ccc(S(=O)(=O)N2CCCC2c2cccc(-c3cncn3CCc3ccc(F)cc3)c2)s1)c1ccccc1 (single isomer, unassigned) [Compound 55b, (R or S)-N-((5-((2-(3-(1-(4-fluorophenethyl)-1H-imidazol-5-yl)phenyl)pyrrolidin-1-yl)sulfonyl)thiophen-2-yl)methyl) benzamide]
10.1 nM | 11.8 nM | > 10000 nM | 4980 nM | > 10000 nM | 1150 nM | CN(C)c1ccc(S(=O)(=O)N2CCCC2c2ccccc2-c2cncn2CCc2ccc(F)cc2)cn1 (single isomer, unassigned) [Compound 28b, (R or S)-5-((2-(2-(1-(4-fluorophenethyl)-1H-imidazol-5-yl)phenyl)pyrrolidin-1-yl)sulfonyl)-N,N-dimethylpyridin-2-amine]
1.9 nM | 4.5 nM | > 10000 nM | 2830 nM | 2170 nM | 1350 nM | CN1CCN(c2ncc(S(=O)(=O)N3CCc4c(cccc4-c4cncn4CCc4ccc(F)cc4)C3)s2)CC1 [Compound 58, 5-((5-(1-(4-fluorophenethyl)-1H-imidazol-5-yl)-3,4-dihydroisoquinolin-2(1H)-yl)sulfonyl)-2-(4-methylpiperazin-1-yl)thiazole]

— patent US9975888B2, “Aryl linked imidazole and triazole derivatives and methods of use thereof for improving the pharmacokinetics of a drug” (MERCK SHARP & DOHME CORP., priority 2013, dated 2018)
